Oligonucleotides are written 5' to 3', each unit as a sugar letter and its base; * is a phosphorothioate linkage, no mark a phosphodiester; rarer units and linkages stand in square brackets, end groups in braces. Plain capitals give the bases only. r = 2'-OH (RNA); {P} = phosphate
Test system: human survivin mRNA
Assay: Inhibition of human survivin mRNA by single-stranded asRNA in HUVEC, real-time quantitative PCR
Type: cell-based
Design: concentration or dose not given beside the values
Settings: Table 7
Description: HUVEC were obtained from ATCC and routinely cultured in EBM (Clonetics Corp, Walkersille, Md.) supplemented with SingleQuots supplements. Cells were routinely passaged by trypsinizaiton and dilution when they reached 90% confluence were maintained for up to 15 passages. For cells grown in 96-well plates (10,000 cells/well), wells were washed once with 200 μL OPTI-MEM-1™ reduced-serum medium (Gibco BRL) and then treated with 130 μL of OPTI-MEM-1™ containing 12 μg/mL LIPOFECTIN™ (Gibco BRL) and the desired double-stranded compounds at a final concentration of 25 nM. After 5 hours of treatment, the medium was replaced with fresh medium. Cells were harvested 16 hours after dsRNA treatment, at which time RNA was isolated and target reduction measured by RT-PCR.
A series of single-stranded olgometric compounds (asRNA) was evaluated for their ability to inhibit human survivin in human umbilical vein endothelial cells (HUVEC). Culture methods used for HUVEC are found, for example, at www.atcc.org.
Data were obtained by real-time quantitative PCR as described in other examples herein.

Substance | % INHIB, inhibition of human survivin mRNA levels by asRNA oligomeric compounds [%]
347430 (antisense {P}-rG*rC*rA*rA*rA*rA*rG*rG*rG*rA*rC*rA*rC*rU*rG*rC*rC*rU*rU*rC) [compound 347430] | 66
347429 (antisense {P}-rU*rC*rC*rC*rU*rC*rA*rC*rU*rU*rC*rU*rC*rA*rC*rC*rU*rG*rG*rU) [compound 347429] | 62
347432 (antisense {P}-rC*rA*rA*rC*rA*rU*rG*rA*rG*rG*rU*rC*rC*rA*rG*rA*rC*rA*rC*rA) [compound 347432] | 66
347446 (antisense {P}-rA*rC*rA*rG*rA*rC*rA*rC*rA*rC*rG*rG*rC*rC*rU*rG*rC*rA*rG*rC) [compound 347446] | 52
347448 (antisense {P}-rU*rC*rC*rA*rU*rC*rA*rU*rC*rU*rU*rA*rC*rG*rC*rC*rA*rG*rA*rC) [compound 347448] | 58
347433 (antisense {P}-rA*rG*rU*rC*rC*rA*rC*rA*rC*rU*rC*rA*rG*rG*rA*rC*rU*rG*rU*rG) [compound 347433] | 60
347443 (antisense {P}-rG*rU*rG*rC*rC*rC*rC*rG*rC*rG*rG*rC*rU*rC*rA*rC*rU*rG*rG*rG) [compound 347443] | 54
347447 (antisense {P}-rG*rA*rA*rC*rG*rU*rG*rA*rC*rA*rG*rA*rU*rG*rU*rG*rA*rA*rG*rG) [compound 347447] | 47
